Results: patent US20240336657A1, “G-ALPHA-S PEPTIDE INHIBITORS AND USES THEREOF” (The Regents of the University of California, priority 2021, published 2024)
Positions of bridges follow the written chain, without caps; N, C: chain ends. Non-standard residues stand in square brackets, D forms with d. Residues, ends and D or L forms follow the SMILES beside them.

Key:
[1] = Plasma stability assay in human plasma; assay type: in vitro ADME; settings: both sexes, pooled human plasma, 37° C., values represent 95% confidence intervals
Experimental: These assays were conducted by Pharmaron Beijing CO., Ltd. Cyclic peptides working solutions were prepared at 10 μM in DMEM with 10% FBS (Avantor, Cat #76294-180) or human plasma (Pooled, Male & Female, BioIVT, Cat #HMN666664). The assays were performed in duplicate. Vials were incubated at 37° C. at 60 rpm in a water bath and taken at designated time points including 0, 480, 1080 and 1440 min. For each time point, the initiation of the reaction was staggered so all the time points were terminated with cold acetonitrile containing internal standards (IS, 100 nM alprazolam, 200 nM labetalol, 200 nM Imipramine and 2 μM ketoplofen) at the same time. Samples were vortexed then centrifuged at 4° C. to remove proteins. The supernatants from centrifugation were diluted by ultra-pure H2O and used for LC-MS/MS analysis. All calculations were carried out using GraphPad Prism. Remaining percentages of parent compounds at each time point were estimated by determining the peak area ratios from extractedion chromatograms.

Gαs S275L [2] = target: T1, Gαs S275L (Homo sapiens, UniProt P63092, S275L); test: Adenylyl cyclase activity assay in membranes of GNAS KO HEK293 cells transfected with Gαs S275L; assay type: biochemical; set-up: expressed in transfected cells; host or cells: GNAS KO HEK293 cells (membranes); settings: Gαs S275L reintroduced
Description: To further assess the cellular specificity of GN13, we designed a GN13-resistant Gαs mutant based on structural analysis. […] We reasoned that mutating this serine residue to a bulky residue should create a drug-resistant Gαs mutant that blocks the GN13-Gαs interaction but would have little effect on adenylyl cyclase activation. […] By contrast, when the drug resistant mutant Gαs S275L was reintroduced into GNAS KO cells, the inhibitory effect of GN13 was abolished (FIG. 3I), providing further evidence that the observed pharmacological activity is due to GN13 binding to the switch II/α3 pocket in Gαs.
GN13 inhibition of Gαs proteins in HEK293 cell membranes (FIG. 17F and FIG. 18F).
a. Cell membrane preparation: HEK293cells, GNAS KO HEK293 cells were plated two day before transfection at a density of 1M cells per 10 cm plate. […] The protein concentrations were measured using BCA, and were normalized to 750 μg/mL. […] The cAMP concentrations were measured by the LANCE Ultra cAMP kit. […]
(§1) A cAMP standard curve was generated in the same plate using the 50 μM cAMP standard in the kit. […] 10 μL of each diluted sample was mixed with 5 μL of 4× Eu-cAMP tracer and 5 μL of 4× ULight-anti-cAMP in a white, opaque Optiplate-384 microplate, incubated for 1 hour at room temperature, and the time-resolved fluorescence resonance energy transfer (TR-FRET) signals were read on a Spark 20M plate reader. […]
Target sequence in this assay (P63092 whole entry S275L): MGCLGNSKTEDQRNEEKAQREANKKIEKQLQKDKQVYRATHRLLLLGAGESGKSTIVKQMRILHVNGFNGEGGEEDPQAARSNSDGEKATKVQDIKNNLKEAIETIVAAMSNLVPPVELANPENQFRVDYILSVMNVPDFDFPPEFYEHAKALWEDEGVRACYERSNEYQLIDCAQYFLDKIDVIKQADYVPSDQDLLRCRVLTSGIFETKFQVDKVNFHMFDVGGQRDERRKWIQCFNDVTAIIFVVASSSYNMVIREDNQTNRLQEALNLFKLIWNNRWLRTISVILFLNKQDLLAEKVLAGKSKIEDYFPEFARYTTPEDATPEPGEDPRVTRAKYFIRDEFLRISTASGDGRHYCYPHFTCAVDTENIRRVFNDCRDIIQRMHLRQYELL

Gαs S275L [3] = target: T1, Gαs S275L; test: Adenylyl cyclase activation assay in the presence of Gβ1/γ2; assay type: biochemical; set-up: made in house; host or cells: Escherichia coli BL21(DE3) (Gαs, VC1, IIC2); Sf9 insect cells (Gβ1/Gγ2); settings: 6.25 μM of GN13
Experimental: GN13 inhibition of Gαs proteins at various concentrations (FIG. 18E).
WT Gαs and S275L mutant at a concentration of 8.5 mg/mL (about 190 μM) in 20 mM HEPES 8.0, 150 mM NaCl, 5 mM MgCl2, 1 mM EDTA-Na 8.0 were diluted to a series of concentrations (4 μM, 1.33 μM, 0.44 μM, 0.15 μM, 49.4 nM, 16.5 nM, 5.5 nM, 0 nM) in dilution buffer (1×PBS 7.4, 0.1% BSA, 1 mM EDTA-Na 8.0, 2 mM DTT, 0.1 mM MgCl2) plus 1 mM GppNHp. After incubation at room temperature for 1 hour to allow nucleotide exchange, 2.5 μL of each sample was then mixed with 1 μL of MgCl2 stock (20 mM MgCl2, 1× PBS 7.4, 0.1% BSA) in an OptiPlate-384, White Opaque 384-well Microplate. 2 μL of adenylyl cyclase/Gβγ stock (2 μM VC1, 2 nM IIC2, 150 μM FSK, 1× PBS 7.4, 0.1% BSA, 10 μM Gβ1/γ2(C68S)) was added, followed by addition of 2.5 μL 25 μM GN13 stock in 1× PBS 7.4, 0.1% BSA. […] The cAMP concentrations were measured by the LANCE Ultra cAMP kit. […]
as §1
Target sequence in this assay (P63092 7-380 isoform P63092-2 S261L limits assumed): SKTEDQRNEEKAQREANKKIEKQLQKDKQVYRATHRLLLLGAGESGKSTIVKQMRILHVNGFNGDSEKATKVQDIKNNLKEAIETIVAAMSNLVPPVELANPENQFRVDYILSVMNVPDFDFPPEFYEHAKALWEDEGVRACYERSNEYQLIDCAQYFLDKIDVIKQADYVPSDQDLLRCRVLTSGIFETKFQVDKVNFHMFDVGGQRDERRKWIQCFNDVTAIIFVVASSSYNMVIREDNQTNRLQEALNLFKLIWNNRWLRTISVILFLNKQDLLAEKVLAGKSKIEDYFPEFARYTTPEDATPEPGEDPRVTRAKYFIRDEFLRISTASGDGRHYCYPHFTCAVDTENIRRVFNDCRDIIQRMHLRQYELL

inhibition of isoproterenol-mediated cAMP production in cell membranes (Gαs S275L [2]) | inhibition of adenylyl cyclase activation by Gαs S275L (Gαs S275L [3]) | SMILES | half-life at 10 μM [1]
 |  | CC[C@H](C)[C@@H]1NC(=O)[C@H](CC(C)C)NC(=O)[C@@H](Cc2ccc(O)cc2)NC(=O)CSC[C@@H](C(=O)NCC(N)=O)NC(=O)[C@@H]2CCCN2C(=O)[C@H](CC(C)C)NC(=O)[C@H](CC(N)=O)NC(=O)[C@H](CC(C)C)NC(=O)[C@H](C)NC(=O)[C@H](Cc2c[nH]c3ccccc23)NC(=O)[C@H](CCC(N)=O)NC(=O)[C@H](CCCNC(=N)N)NC(=O)[C@H](Cc2ccccc2)NC(=O)[C@H]([C@@H](C)O)NC1=O [GD20-F10L] ({CH2CO}-[dY]LITFRQWALNLPCG-NH2; thioether N-14) | 7.16 to 12.7 h
abolished | resistant to GN13 inhibition | CC[C@H](C)[C@@H]1NC(=O)[C@H](C)NC(=O)[C@H](Cc2ccc(O)cc2)NC(=O)[C@H](C(C)C)NC(=O)[C@H](CO)NC(=O)[C@H](CCC(=O)O)NC(=O)[C@H](Cc2ccccc2)NC(=O)[C@@H](Cc2ccc(O)cc2)NC(=O)CSC[C@@H](C(=O)NCC(N)=O)NC(=O)[C@H](CC(C)C)NC(=O)[C@H]([C@@H](C)O)NC(=O)CNC(=O)[C@H](Cc2c[nH]c3ccccc23)NC1=O [GN13] ({CH2CO}-[dY]FESVYAIWGTLCG-NH2; thioether N-13) | 
